Measured values: patent publication US11524966B1 (Valo Early Discovery, Inc., priority 2017, dated 2022)

Target: T1, USP28 (His-tagged USP28-FL-mammalian) (Homo sapiens, UniProt Q96RU2)
T1 construct: Expression of USP28 (1-1077)-TEV-6*His (pTT5 vector); made in house; host or cells: Expi293f cells (pTT5 vector)
T1 sequence (Q96RU2 1-1077): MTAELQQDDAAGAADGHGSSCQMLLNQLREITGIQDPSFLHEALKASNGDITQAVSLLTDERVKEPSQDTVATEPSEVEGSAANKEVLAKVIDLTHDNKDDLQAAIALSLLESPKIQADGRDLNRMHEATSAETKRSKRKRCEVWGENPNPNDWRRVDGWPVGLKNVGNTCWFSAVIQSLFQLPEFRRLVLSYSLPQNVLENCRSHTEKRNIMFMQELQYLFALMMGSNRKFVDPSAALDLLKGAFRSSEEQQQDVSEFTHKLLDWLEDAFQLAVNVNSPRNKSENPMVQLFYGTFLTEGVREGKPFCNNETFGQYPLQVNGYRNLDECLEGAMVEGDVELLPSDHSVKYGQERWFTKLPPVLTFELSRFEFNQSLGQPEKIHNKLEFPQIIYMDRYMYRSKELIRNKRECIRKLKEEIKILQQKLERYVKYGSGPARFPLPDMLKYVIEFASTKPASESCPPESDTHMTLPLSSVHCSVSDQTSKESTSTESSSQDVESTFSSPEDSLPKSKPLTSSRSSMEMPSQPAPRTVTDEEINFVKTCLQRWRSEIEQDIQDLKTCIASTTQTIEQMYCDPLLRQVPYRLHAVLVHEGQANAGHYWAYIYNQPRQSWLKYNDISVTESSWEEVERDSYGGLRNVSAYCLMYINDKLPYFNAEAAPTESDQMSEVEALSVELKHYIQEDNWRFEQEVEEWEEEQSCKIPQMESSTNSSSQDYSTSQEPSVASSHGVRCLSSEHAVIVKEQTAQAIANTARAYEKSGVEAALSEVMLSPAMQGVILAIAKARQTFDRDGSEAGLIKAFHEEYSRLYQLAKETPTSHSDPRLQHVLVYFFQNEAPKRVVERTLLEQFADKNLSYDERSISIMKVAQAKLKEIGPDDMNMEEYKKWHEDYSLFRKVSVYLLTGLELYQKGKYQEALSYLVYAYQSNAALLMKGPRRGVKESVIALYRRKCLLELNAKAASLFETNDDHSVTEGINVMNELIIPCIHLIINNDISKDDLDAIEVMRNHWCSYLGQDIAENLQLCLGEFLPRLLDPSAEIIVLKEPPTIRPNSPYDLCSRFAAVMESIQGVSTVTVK
Test: Ubiquitin-Rhodamine 110 Assay for USP28 Activity, Example A-1(a)
Type: biochemical
Details: Ubiquitin-Rhodamine 110 assay, Example A-1(a); read-out: USP28 A-1(a) IC50 range
Method in brief: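 Full-length His-tagged USP28 (1-1077, Expi293F-expressed; […]) was preincubated 30 min with compound (25 μM–1.3 nM, 10-point 3-fold) in 20 mM Tris-HCl pH 8.0, 3 mM BME, 0.03% BGG, 0.01% Triton X-100. Ub-Rh110 (25 nM) was then added for 45 min at room temperature, stopped with citric acid, and read by fluorescence (485/535 nm).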

## CO[C@H]1CN(c2ccc3c(c2)OC[C@H](NC(=O)c2sc4nc(C)sc4c2N)C3)C[C@@H]1N [Example 118, 6-amino-N-[(3R)-7-[(3S,4S)-3-amino-4-methoxypyrrolidin-1-yl]-3,4-dihydro-2H-1-benzopyran-3-yl]-2-methylthieno[2,3-d][1,3]thiazole-5-carboxamide]
  IC50: 50 to 200 nM

## CO[C@H]1CN(c2ccc3c(c2)CC[C@H](NC(=O)c2sc4nc(C)ccc4c2N)C3)C[C@@H]1N [Example 116, 3-amino-N-[(2S)-6-[(3S,4S)-3-amino-4-methoxypyrrolidin-1-yl}-1,2,3,4-tetrahydronaphthalen-2-yl]-6-methylthieno[2,3-b]pyridine-2-carboxamide]
  IC50: 50 to 200 nM

## CCO[C@H]1CN(c2ccc3c(c2)OC[C@H](NC(=O)c2sc4nc(C)ccc4c2N)C3)C[C@H]1N [Example 152]
  IC50: 1 to 50 nM

## CCn1ccc2cc(C(=O)N[C@H]3CCc4cc(N5C[C@H](OC)[C@@H](N)C5)ccc4C3)nnc21 [Example 131, N-[(2S)-6-[(3S,4S)-3-amino-4-methoxypyrrolidin-1-yl]-1,2,3,4-tetrahydronaphthalen-2-yl]-7-ethyl-7H-pyrrolo[2,3-c]pyridazine-3-carboxamide]
  IC50: > 2000 nM

## CO[C@@H]1CCN(c2ccc3c(c2)OC[C@H](NC(=O)c2sc4nc(C)ccc4c2N)C3)C[C@H]1N [Example 120, 3-amino-N-[(3R)-7-[(3R,4R)-3-amino-4-methoxypiperidin-1-yl]-3,4-dihydro-2H-1-benzopyran-3-yl]-6-methylthieno[2,3-b]pyridine-2-carboxamide]
  IC50: 1 to 50 nM

## CO[C@H]1CN(c2cc3c(cc2F)C[C@@H](NC(=O)c2sc4nc(C)ccc4c2N)CO3)C[C@@H]1N [Example 94, 3-amino-N-[(3R)-7-[(3S,4S)-3-amino-4-methoxypyrrolidin-1-yl]-6-fluoro-3,4-dihydro-2H-1-benzopyran-3-yl]-6-methylthieno[2,3-b]pyridine-2-carboxamide]
  IC50: 1 to 50 nM

## CO[C@H]1CN(c2cc(F)c3c(c2C#N)OC[C@H](NC(=O)c2sc4nc(C)ccc4c2N)C3)C[C@@H]1N [Example 175, 3-amino-N-[(3R)-7-[(3S,4S)-3-amino-4-methoxypyrrolidin-1-yl]-8-cyano-5-fluoro-3,4-dihydro-2H-1-benzopyran-3-yl]-6-methylthieno[2,3-b]pyridine-2-carboxamide]
  IC50: 50 to 200 nM

## Cc1ccc2c(N)c(C(=O)N[C@H]3CCc4cc(N5CC6CNCC(C5)O6)c(C#N)cc4C3)sc2n1 [Example 109, 3-amino-N-[(2S)-7-cyano-6-{9-oxa-3,7-diazabicyclo[3.3.1]nonan-3-yl}-1,2,3,4-tetrahydronaphthalen-2-yl]-6-methylthieno[2,3-b]pyridine-2-carboxamide]
  IC50: 1 to 50 nM

## COC[C@H]1CNCCN1c1ccc2c(c1)OC[C@H](NC(=O)c1sc3nc(C)ccc3c1N)C2 [Example 156, 3-amino-N-[(3R)-7-[(21)-2-(methoxymethyl)piperazin-1-yl]-3,4-dihydro-2H-1-benzopyran-3-yl]-6-methylthieno[2,3-b]pyridine-2-carboxamide]
  IC50: 50 to 200 nM

## Cc1ccc2c(N)c(C(=O)N[C@H]3COc4c(F)c(N5C[C@H]6C[C@@H]5CN6)cc(F)c4C3)sc2n1 [Example 111, 3-amino-N-[(3R)-7-[(1R,4R)-2,5-diazabicyclo[2.2.1]heptan-2-yl]-5,8-difluoro-3,4-dihydro-2H-1-benzopyran-3-yl]-6-methylthieno[2,3-b]pyridine-2-carboxamide]
  IC50: 1 to 50 nM

## CO[C@H]1CN(c2ccc3c(c2)OC[C@H](NC(=O)c2sc4nc(C)cnc4c2N)C3)C[C@H]1N [Example 148, 7-amino-N-[(3R)-7-[(3R,4S)-3-amino-4-methoxypyrrolidin-1-yl]-3,4-dihydro-2H-1-benzopyran-3-yl]-3-methylthieno[2,3-b]pyrazine-6-carboxamide]
  IC50: 1 to 50 nM

## COC[C@H]1CN(c2ccc3c(c2)OC[C@H](NC(=O)c2sc4nc(C)ccc4c2N)C3)C[C@@H]1N [Example 164, 3-amino-N-[(3R)-7-[(3R,4S)-3-amino-4-(methoxymethyl)pyrrolidin-1-yl]-3,4-dihydro-2H-1-benzopyran-3-yl]-6-methylthieno[2,3-b]pyridine-2-carboxamide]
  IC50: 1 to 50 nM

## Cc1ccc2c(N)c(C(=O)N[C@H]3COc4cc(N5CC6CNCC(C5)O6)c(C#N)c(F)c4C3)sc2n1 [Example 127, 3-amino-N-[(3R)-6-cyano-5-fluoro-7-{9-oxa-3,7-diazabicyclo[3.3.1]nonan-3-yl}-3,4-dihydro-2H-1-benzopyran-3-yl]-6-methylthieno[2,3-b]pyridine-2-carboxamide]
  IC50: 1 to 50 nM

## CCn1ccc2cc(C(=O)N[C@H]3CCc4cc(N5C[C@H](OC)[C@@H](N)C5)ccc4C3)cnc21 [Example 132, N-[(2S)-6-[(3S,4S)-3-amino-4-methoxypyrrolidin-1-yl]-1,2,3,4-tetrahydronaphthalen-2-yl]-1-ethyl-1H-pyrrolo[2,3-b]pyridine-5-carboxamide]
  IC50: 200 to 2000 nM

## Cc1ccc2c(N)c(C(=O)N[C@H]3COc4nc(N5CC6CNCC(C5)C6(F)F)ccc4C3)sc2n1 [Example 113, 3-amino-N-[(3R)-7-{9 9-difluoro-3,7-diazabicyclo[3.3.1]nonan-3-yl}-2H b,3H,4H-pyrano[2,3-b]pyridin-3-yl]-6-methylthieno[2,3-b]pyridine-2-carboxamide]
  IC50: 1 to 50 nM

## CO[C@H]1CN(c2ccc3c(c2)OC[C@H](NC(=O)c2sc4nc(C)ccc4c2N)C3)C[C@H]1N [Example 122, 3-amino-N-[(3R)-7-[(3R,4S)-3-amino-4-methoxypyrrolidin-1-yl]-3,4-dihydro-2H-1-benzopyran-3-yl]-6-methylthieno[2,3-b]pyridine-2-carboxamide]
  IC50: 1 to 50 nM

## Cc1ccc2c(N)c(C(=O)N[C@H]3COc4cc(N5CC6CCC(C5)N6)c(C#N)c(F)c4C3)sc2n1 [Example 126, 3-amino-N-[(3R)-6-cyano-7-{3,8-diazabicyclo[3.2.1]octan-3-yl}-5-fluoro-3,4-dihydro-2H-1-benzopyran-3-yl]-6-methylthieno[2,3-b]pyridine-2-carboxamide]
  IC50: 1 to 50 nM

## CCO[C@H]1CN(c2ccc3c(c2)OC[C@H](NC(=O)c2sc4nc(C)ccc4c2N)C3)C[C@@H]1N [Example 115, 3-amino-N-[(3R)-7-[(3S,4S)-3-amino-4-ethoxypyrrolidin-1-yl]-3,4-dihydro-2H-1-benzopyran-3-yl]-6-methylthieno[2,3-b]pyridine-2-carboxamide]
  IC50: 1 to 50 nM

## CO[C@@H]1CN(c2ccc3c(c2)OC[C@H](NC(=O)c2sc4nc(C)ccc4c2N)C3)CC[C@H]1N [Example 129, 3-amino-N-[(3R)-7-[(3R,4R)-4-amino-3-methoxypiperidin-1-yl]-3,4-dihydro-2H-1-benzopyran-3-yl]-6-methylthieno[2,3-b]pyridine-2-carboxamide]
  IC50: 1 to 50 nM

## Cc1ccc2c(N)c(C(=O)N[C@H]3COc4cc(N5C[C@H](OC6CC6)[C@@H](N)C5)ccc4C3)sc2n1 [Example 140, 3-amino-N-[(3R)-7-[(3S,4S)-3-amino-4-cyclopropoxypyrrolidin-1-yl]-3,4-dihydro-2H-1-benzopyran-3-yl]-6-methylthieno[2,3-b]pyridine-2-carboxamide]
  IC50: 1 to 50 nM

## CO[C@H]1CN(c2ccc3c(c2)CC[C@H](NC(=O)c2sc4nc(C)sc4c2N)C3)C[C@@H]1N [Example 133, 6-amino-N-[(2S)-6-[(3S,4S)-3-amino-4-methoxypyrrolidin-1-yl]-1,2,3,4-tetrahydronaphthalen-2-yl]-2-methylthieno[2,3-d][1,3]thiazole-5-carboxamide]
  IC50: 50 to 200 nM

## CO[C@H]1CN(c2cc(F)c3c(c2C#N)OC[C@H](NC(=O)c2sc4nc(C)cnc4c2N)C3)C[C@@H]1N [Example 174, 7-amino-N-[(3R)-7-[(3S,4S)-3-amino-4-methoxypyrrolidin-1-yl]-8-cyano-5-fluoro-3,4-dihydro-2H-1-benzopyran-3-yl]-3-methylthieno[2,3-b]pyrazine-6-carboxamide]
  IC50: 200 to 2000 nM

## Cc1ccc2c(N)c(C(=O)N[C@H]3COc4cc([C@H]5C[C@@H](N)C5)ccc4C3)sc2n1 [Example 123, 3-amino-6-methyl-N-[(3R)-7-[(1s,3S)-3-aminocyclobutyl]-3,4-dihydro-2H-1-benzopyran-3-yl]thieno[2,3-b]pyridine-2-carboxamide]
  IC50: 1 to 50 nM
